Our source for the TGI and GI50 values is PubChem BioAssay (NCI).

Test systems include SF-295 CNS; SNB-19 CNS; HCT-15 colon; CAKI-1 renal; HL-60(TB) leukemia; BT-549 breast; SK-MEL-28 melanoma; SNB-75 CNS; MALME-3M melanoma; OVCAR-4 ovarian; CCRF-CEM leukemia; 786-0 renal; UACC-62 melanoma.
What all share (assay): inhibition of tumour cell growth, NCI panel, 48 h

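Protocol summary: plate cells (96-well), add compound at 5 concentrations, incubate 48 h, interpolate endpoints linearly. GI50 = concentration required for 50% inhibition of growth. At the TGI there is no net growth.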 Where only a bound is given, the exact number is not on record here.

As to `COc1cccc(C2c3cc4c(cc3OC(NNC(N)=O)C2C)OCO4)c1O` (stereo not drawn), the TGI with SF-295 CNS was 14 µM; with SNB-19 CNS it was over 100 µM; with HCT-15 colon, over 100 µM; in the test on CAKI-1 renal, over 77.9 µM; in the test on HL-60(TB) leukemia, 4 µM; with BT-549 breast, over 100 µM. In addition, the TGI with SK-MEL-28 melanoma is over 69.6 µM; in the test with SNB-75 CNS, over 69.4 µM; in the test with MALME-3M melanoma it was over 67.7 µM; with OVCAR-4 ovarian, over 100 µM; in the test with CCRF-CEM leukemia, over 100 µM; with 786-0 renal, over 69.3 µM. Further, the TGI in the test on UACC-62 melanoma was over 100 µM.

Turning to `CC(=O)c1cc2c(s1)C(=O)c1ccsc1C2=O`, the TGI worked out at 0.307 µM in the test with SF-295 CNS; 1.02 µM in the test on SNB-19 CNS; 0.367 µM in the test on HCT-15 colon; 4.29 µM in the test on CAKI-1 renal; 0.369 µM with HL-60(TB) leukemia; 0.356 µM with BT-549 breast. Also, the TGI is 0.361 µM in the test with SK-MEL-28 melanoma; 0.367 µM with SNB-75 CNS; 0.332 µM with MALME-3M melanoma; 2.56 µM with OVCAR-4 ovarian; 1.3 µM in the test with CCRF-CEM leukemia; 4.16 µM in the test with 786-0 renal. Further, in the test with UACC-62 melanoma, the TGI is 0.688 µM.

For the compound `CC1(C)CCCC2CC2CCC(C)(C)C1=O` (stereo not drawn), the TGI in the test with SF-295 CNS was over 100 µM; in the test on SNB-19 CNS it was over 100 µM; in the test on HCT-15 colon it was over 100 µM; with CAKI-1 renal, over 100 µM; in the test on HL-60(TB) leukemia it was 41.2 µM; in the test on BT-549 breast it was over 100 µM. The TGI with SK-MEL-28 melanoma was over 100 µM; with SNB-75 CNS, over 100 µM; in the test with MALME-3M melanoma, over 100 µM; in the test on OVCAR-4 ovarian it was over 100 µM; with CCRF-CEM leukemia it was 38.4 µM; in the test on 786-0 renal, 86.6 µM. This compound also showed a TGI in the test with UACC-62 melanoma of over 100 µM.

As for `Cc1ccc(N=NN(C)C(C)C(O)Cc2ccccc2)cc1` (stereo not drawn), the TGI in the test with SF-295 CNS, in the test on SNB-19 CNS, in the test with HCT-15 colon, with CAKI-1 renal, in the test with HL-60(TB) leukemia and in the test on BT-549 breast was over 100 µM in each case. Moreover, the TGI with SK-MEL-28 melanoma, with SNB-75 CNS, with MALME-3M melanoma, with OVCAR-4 ovarian, in the test on CCRF-CEM leukemia and in the test with 786-0 renal was over 100 µM each time. For the same compound, in the test with UACC-62 melanoma, the TGI is over 100 µM.

As to `Brc1c2c(c(Br)c3nsnc13)N=S=N2`, the TGI in the test with SF-295 CNS was over 70.8 µM; in the test on SNB-19 CNS it was over 70 µM; with HCT-15 colon, 60 µM; with CAKI-1 renal it was 40.4 µM; in the test on HL-60(TB) leukemia, 12.3 µM; in the test with BT-549 breast it was 26.9 µM. For the same compound, the TGI with SK-MEL-28 melanoma was over 70.7 µM; in the test with SNB-75 CNS, 63.7 µM; in the test with MALME-3M melanoma it was over 72.6 µM; with OVCAR-4 ovarian it was over 55.7 µM; in the test on CCRF-CEM leukemia, 5.2 µM; in the test with 786-0 renal, 41.6 µM. The TGI in the test with UACC-62 melanoma worked out at 33.5 µM.

With `CCCC(=O)N(C)N=Nc1ccc(C(=O)OCC)cc1`, the TGI in the test on SF-295 CNS, with SNB-19 CNS, in the test with HCT-15 colon, with CAKI-1 renal, with HL-60(TB) leukemia and with BT-549 breast was over 100 µM throughout. Besides, the TGI in the test on SK-MEL-28 melanoma, in the test with SNB-75 CNS, in the test with MALME-3M melanoma, in the test with OVCAR-4 ovarian, with CCRF-CEM leukemia and with 786-0 renal was over 100 µM throughout. In the test on UACC-62 melanoma, this compound displayed a TGI of over 100 µM.

In the case of `COc1ccc(OC)c(N=Cc2cc(OC)c(OC)c(OC)c2)c1`, the TGI in the test with SF-295 CNS, with SNB-19 CNS, in the test on HCT-15 colon, in the test with CAKI-1 renal, with HL-60(TB) leukemia and with BT-549 breast was over 100 µM in each case. Besides, the TGI is over 100 µM in the test on SK-MEL-28 melanoma; over 100 µM with SNB-75 CNS; over 100 µM in the test on MALME-3M melanoma; over 100 µM with OVCAR-4 ovarian; 66.4 µM in the test on CCRF-CEM leukemia; over 100 µM with 786-0 renal. The same compound returned a TGI in the test with UACC-62 melanoma of over 100 µM.

As to `Clc1ccc(OCc2nnc3sc(SSc4nn5c(COc6ccc(Cl)cc6)nnc5s4)nn23)cc1`, the TGI in the test on SF-295 CNS, in the test with SNB-19 CNS, in the test on HCT-15 colon, with CAKI-1 renal, in the test on HL-60(TB) leukemia and in the test on BT-549 breast was over 100 µM in each case. The TGI with SK-MEL-28 melanoma, in the test on SNB-75 CNS, in the test on MALME-3M melanoma, with OVCAR-4 ovarian, in the test with CCRF-CEM leukemia and in the test with 786-0 renal was over 100 µM throughout. The compound also came in with a TGI with UACC-62 melanoma of over 100 µM. For the same compound, the GI50 is 86.2 µM in the test on HCT-15 colon; 77.3 µM in the test with CAKI-1 renal; 48.1 µM in the test on BT-549 breast; 46.7 µM with OVCAR-4 ovarian; 76.7 µM with CCRF-CEM leukemia; 44.7 µM in the test with UACC-62 melanoma.

As for `COc1ccc(C2CC(c3ccc(NS(=O)(=O)c4cc([N+](=O)[O-])ccc4C)cc3)=NN2S(=O)(=O)c2cc([N+](=O)[O-])ccc2C)cc1` (stereo not drawn), the TGI with SF-295 CNS, in the test on SNB-19 CNS, in the test on HCT-15 colon, in the test with CAKI-1 renal, in the test with HL-60(TB) leukemia and in the test with BT-549 breast was over 100 µM throughout. Further, the TGI in the test on SK-MEL-28 melanoma, in the test on SNB-75 CNS, in the test with MALME-3M melanoma, with OVCAR-4 ovarian, in the test on CCRF-CEM leukemia and in the test on 786-0 renal was over 100 µM in each case. This compound came in with a TGI in the test on UACC-62 melanoma of over 100 µM.

Turning to `C[C@@H](Oc1ccc(Oc2cnc3ccc(Cl)cc3n2)cc1)C(=O)O`, the TGI with SF-295 CNS, with SNB-19 CNS, with HCT-15 colon, in the test on CAKI-1 renal, in the test with HL-60(TB) leukemia and in the test on BT-549 breast was over 100 µM throughout. In addition, the TGI in the test with SK-MEL-28 melanoma, with SNB-75 CNS, in the test with MALME-3M melanoma, in the test with OVCAR-4 ovarian, with CCRF-CEM leukemia and in the test on 786-0 renal was over 100 µM throughout. The compound also showed a TGI with UACC-62 melanoma of over 100 µM. Further, the GI50 in the test on UACC-62 melanoma was 46.4 µM.

For `O=C(NC(=O)c1ccccc1)OC(c1ccccc1)C1CO1` (stereo not drawn), the TGI with SF-295 CNS, in the test with SNB-19 CNS, with HCT-15 colon, with CAKI-1 renal, in the test with HL-60(TB) leukemia and in the test on BT-549 breast was over 100 µM in each case. The TGI in the test on SK-MEL-28 melanoma, in the test on SNB-75 CNS, in the test with MALME-3M melanoma, with OVCAR-4 ovarian, in the test on CCRF-CEM leukemia and in the test on 786-0 renal was over 100 µM in each case. The TGI in the test on UACC-62 melanoma was over 100 µM.

For the compound `N#CC(c1ccccc1)N(CCc1ccccc1)C(=O)c1ccc(C(=O)N(CCc2ccccc2)C(C#N)c2ccccc2)cc1` (stereo not drawn), the TGI with SF-295 CNS is 51.9 µM; with SNB-19 CNS, over 100 µM; with HCT-15 colon it was 37.8 µM; with CAKI-1 renal it was over 100 µM; in the test with HL-60(TB) leukemia, over 100 µM; in the test with BT-549 breast it was 44.3 µM. Besides, the TGI in the test on SK-MEL-28 melanoma came to 51.3 µM; in the test on SNB-75 CNS, 45.8 µM; with MALME-3M melanoma, 39.3 µM; with OVCAR-4 ovarian, 64 µM; with CCRF-CEM leukemia, 71.5 µM; in the test on 786-0 renal, 56.5 µM. Moreover, the TGI with UACC-62 melanoma came out at 35.6 µM.
